Reference: patent US20210275556A1, “Cannabidiol Combination Compositions” (Companion Sciences. LLC, priority 2018, published 2021)

How the values were obtained:
in vivo = settings: male, Sprague Dawley, rat
Experimental: (§1) Three different water-soluble CBD oral formulae were tested, F #01 (20%), L #02 (2.5% CBD) and I #03 (20% CBD), and administered at 15 mg/Kg rat.
(§2) The three formulae were tested in combination with 500 mg/Kg Glucosamine (Gln).
(§3) The total administered volume was 10 mL/Kg (CBD+Gln).
(§4) The trial was performed on Sprague Dawley male rat (n=3/group).
(§5) A single dose containing CBD and Gln was provided PO at t=0.
CBD and Gln plasma concentrations were examined 1, 4 and 8 hours following a single administration.

[1] = Gln and CBD concentration in the synovial fluid 8 hours after oral administration; settings: 8 h after oral administration of 15 mg/Kg CBD + 500 mg/Kg Gln
Experimental: as §1, §2, §3, §4, §5
Gln concentration in the synovial fluid was examined 8 hours after oral administration.

In the case of `N[C@H]1C(O)O[C@H](CO)[C@@H](O)[C@@H]1O` (some centres unmarked) [Gln, Glucosamine], the “decrease of Gln plasma concentration from the 4 h point” value (in vivo) was 94.0%, the concentration at 1 h (in vivo; po, 500 mg/kg) was 2.04 ng/mL and the concentration at 4 h (in vivo; po, 500 mg/kg) was 134 ng/mL. The concentration at 8 h (in vivo; po, 500 mg/kg) was 8 ng/mL.
For `C=C(C)[C@@H]1CCC(C)=C[C@H]1c1c(O)cc(CCCCC)cc1O` [CBD, Cannabidiol], the “CBD in the synovial fluid” value [1] was “No CBD was detected”.
